One may read the IC50 as the concentration that gives 50% inhibition.

We go through nine molecules from patent EP4806891A1 (Kangbaida (Sichuan) Biotechnology Co., Ltd., priority 2023, dated 2025).

Where only a bound is given, the exact number is not on record here.

One assay has as its target T1, HEK-Blue-hTLR8 cells (Homo sapiens, UniProt Q9NR97).
T1 construct: expressed in transfected cells; host or cells: HEK-Blue-hTLR8 cells (HEK293-derived reporter line)
T1 sequence (Q9NR97 27-1041): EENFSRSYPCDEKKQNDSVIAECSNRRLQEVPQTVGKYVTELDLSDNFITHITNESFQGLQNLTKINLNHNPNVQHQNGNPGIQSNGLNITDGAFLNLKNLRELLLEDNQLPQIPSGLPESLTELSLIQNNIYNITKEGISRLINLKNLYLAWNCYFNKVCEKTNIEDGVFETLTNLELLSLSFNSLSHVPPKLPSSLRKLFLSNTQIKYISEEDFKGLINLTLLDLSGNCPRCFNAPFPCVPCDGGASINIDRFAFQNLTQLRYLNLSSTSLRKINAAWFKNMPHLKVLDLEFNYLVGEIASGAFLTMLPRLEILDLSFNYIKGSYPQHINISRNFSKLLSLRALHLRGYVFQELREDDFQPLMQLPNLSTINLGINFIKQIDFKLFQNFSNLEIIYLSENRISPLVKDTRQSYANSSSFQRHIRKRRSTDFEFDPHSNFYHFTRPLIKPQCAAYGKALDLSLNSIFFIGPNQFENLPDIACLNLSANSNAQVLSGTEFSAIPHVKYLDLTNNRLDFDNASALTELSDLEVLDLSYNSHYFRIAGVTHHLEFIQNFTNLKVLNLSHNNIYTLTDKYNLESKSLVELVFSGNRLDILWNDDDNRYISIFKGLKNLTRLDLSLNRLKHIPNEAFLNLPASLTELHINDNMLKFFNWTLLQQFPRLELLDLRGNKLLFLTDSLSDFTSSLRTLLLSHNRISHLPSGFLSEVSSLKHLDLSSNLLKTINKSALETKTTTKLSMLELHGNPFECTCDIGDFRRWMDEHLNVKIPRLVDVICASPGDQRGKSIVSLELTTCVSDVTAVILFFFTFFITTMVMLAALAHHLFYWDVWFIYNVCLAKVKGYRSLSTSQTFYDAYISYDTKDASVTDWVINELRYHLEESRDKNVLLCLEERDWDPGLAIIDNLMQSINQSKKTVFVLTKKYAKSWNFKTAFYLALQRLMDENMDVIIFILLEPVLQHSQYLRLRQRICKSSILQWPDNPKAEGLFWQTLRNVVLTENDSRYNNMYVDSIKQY
As to the kind of experiment: HEK-Blue-hTLR8 cell inhibition assay. Type of assay: cell-based. The following applies: R848 3 µM, 16 h, OD 620 nm, read-out: TLR8 IC50. As to the method:
(§1) HEK-Blue-hTLR7/8/9 cell inhibition assay
(§2) 1. HEK-Blue-hTLR7/8 cells (1 × 10^4 cells/well) and HEK-Blue-hTLR9 cells (1.5 × 10^4 cells/well) were seeded in a 384-well cell culture plate, with a volume of 30 µL per well. The plate was incubated at 37°C in a 5% CO2 incubator for 4 h. 2. The compound was prepared with DMSO and diluted in DMEM medium to 10 concentrations (1:3 dilution), with final concentrations of 10000, 3333.3, 1111.1, 370.4, 123.5, 41.2, 13.7, 4.6, 1.5, and 0.5 nM; R848 was prepared with DMSO and diluted in DMEM medium, with final concentrations of 0.8 µM (HEK-Blue-hTLR7) and 3 µM (HEK-Blue-hTLR8); ODN2006 was prepared with endotoxin-free water and diluted in DMEM medium, with a final concentration of 1 µM. 3. Cells treated with DMSO were used as the blank control group, while cells treated solely with Resiquimod (R848) were used as the positive control group for HEK-Blue-hTLR7/8, and cells treated solely with ODN2006 were used as the positive control group for HEK-Blue-hTLR9. Cells treated with the test compound together with R848 or ODN2006 were used as the test group. Two parallel wells were set for each group and were placed at 37°C in a 5% CO2 incubator for incubation. 4. After being incubated for 4 h, the 384-well plate of HEK-Blue-hTLR7/8 was taken out from the incubator, and R848 alone or both R848 and the diluted compound were separately added into each well. The plate was placed at 37°C in a 5% CO2 incubator for incubation for 16 h; the 384-well plate of HEK-Blue-hTLR9 was taken out from the incubator, and ODN2006 alone or both ODN2006 and the diluted compound were added separately to each well. The plate was incubated at 37°C in a 5% CO2 incubator for 16 h. 5. After being incubated for 16 h, the 384-well plate was removed from the incubator and centrifuged at 1000 rpm for 1 minute. The optical density value of each well at 620 nm was measured using a multifunctional microplate reader. 6. The cell inhibition rate was calculated as (1-(OD620 test group-OD620 blank group)/(OD620 positive group-OD620 blank group))×100%, and the half maximal inhibitory concentration (IC50) was calculated through curve fitting. Table 1: Activity of the compounds of the present disclosure in HEK-Blue-hTLR7/8/9 cellular assays

In another assay the target is T2, HEK-Blue-hTLR7 cells (Homo sapiens, UniProt Q9NYK1).
T2 construct: expressed in transfected cells; host or cells: HEK-Blue-hTLR7 cells (HEK293-derived reporter line)
T2 sequence (Q9NYK1 27-1049): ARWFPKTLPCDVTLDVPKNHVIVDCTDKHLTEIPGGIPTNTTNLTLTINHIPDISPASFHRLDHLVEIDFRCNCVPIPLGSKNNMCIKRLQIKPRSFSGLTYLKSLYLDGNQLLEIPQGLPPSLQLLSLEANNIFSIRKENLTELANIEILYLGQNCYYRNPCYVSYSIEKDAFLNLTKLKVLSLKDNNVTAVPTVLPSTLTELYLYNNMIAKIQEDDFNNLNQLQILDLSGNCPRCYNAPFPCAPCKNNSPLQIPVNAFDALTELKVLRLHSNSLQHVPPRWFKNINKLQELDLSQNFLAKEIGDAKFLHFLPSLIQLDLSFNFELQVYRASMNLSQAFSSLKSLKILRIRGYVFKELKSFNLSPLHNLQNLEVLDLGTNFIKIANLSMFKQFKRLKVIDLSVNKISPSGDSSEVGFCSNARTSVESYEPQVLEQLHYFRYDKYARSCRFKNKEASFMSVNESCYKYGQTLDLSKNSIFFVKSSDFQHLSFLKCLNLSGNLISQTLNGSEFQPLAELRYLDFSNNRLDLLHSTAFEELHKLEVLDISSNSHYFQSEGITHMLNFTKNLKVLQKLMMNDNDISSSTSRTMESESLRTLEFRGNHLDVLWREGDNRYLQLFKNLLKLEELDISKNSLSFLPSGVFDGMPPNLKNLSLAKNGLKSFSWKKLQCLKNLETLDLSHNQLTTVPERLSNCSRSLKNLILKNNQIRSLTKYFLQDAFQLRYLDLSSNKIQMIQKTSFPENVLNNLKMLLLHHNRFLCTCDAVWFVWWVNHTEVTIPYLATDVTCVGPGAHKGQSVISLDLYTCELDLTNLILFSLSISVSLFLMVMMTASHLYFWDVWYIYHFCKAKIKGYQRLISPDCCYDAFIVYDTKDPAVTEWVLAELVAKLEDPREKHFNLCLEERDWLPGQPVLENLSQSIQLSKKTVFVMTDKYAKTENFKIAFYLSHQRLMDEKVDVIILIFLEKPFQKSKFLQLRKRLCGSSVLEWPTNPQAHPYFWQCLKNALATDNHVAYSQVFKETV
The assay can be described thus: HEK-Blue-hTLR7 cell inhibition assay. The class given is cell-based. To be noted: R848 0.8 µM, 16 h, OD 620 nm, read-out: TLR7 IC50. As to the method:
as §1, §2

On to `CN1CC2(CC(c3nnc([C@]45CN(c6ccc(C(F)(F)F)c7ncccc67)C[C@@]4(C(F)(F)F)C5)o3)C2)C1` [Compound 16, 2-(2-methyl-2-azaspiro[3.3]heptan-6-yl)-5-((1S,5R)-5-(trifluoromethyl)-3-(8-(trifluoromethyl)quinolin-5-yl)-3-azabicyclo[3.1.0]hexan-1-yl)-1,3,4-oxadiazole], for which the IC50 at HEK-Blue-hTLR8 cells and on HEK-Blue-hTLR7 cells was below 100 nM in each case.
Take `N#Cc1ccc(N2C[C@]3(c4nnc(OCCN5CCCC5)o4)C[C@]3(C(F)(F)F)C2)c2cccnc12` [Compound 48, 5-((1S,5R)-1-(5-(2-(pyrrolidin-1-yl)ethoxy)-1,3,4-oxadiazol-2-yl)-5-(trifluoromethyl)-3-azabicyclo[3.1.0]hexan-3-yl)quinoline-8-carbonitrile]: the IC50 on HEK-Blue-hTLR8 cells and on HEK-Blue-hTLR7 cells was below 100 nM each time.
`CN1CCC(c2nnc([C@]34CN(c5ccc(C#N)c6nc(Cl)ccc56)C[C@@]3(C(F)(F)F)C4)o2)CC1` [Compound 58, 2-chloro-5-((1S,5R)-1-(5-(1-methylpiperidin-4-yl)-1,3,4-oxadiazol-2-yl)-5-(trifluoromethyl)-3-azabicyclo[3.1.0]hexan-3-yl)quinoline-8-carbonitrile]: the IC50 on HEK-Blue-hTLR8 cells and at HEK-Blue-hTLR7 cells was above 1000 nM throughout.
In the case of `COc1ccc2c(N3C[C@]4(c5nnc(C6CCN(C)CC6)o5)C[C@]4(C(F)(F)F)C3)ccc(C#N)c2n1` [Compound 61, 2-methoxy-5-((1S,5R)-1-(5-(1-methylpiperidin-4-yl)-1,3,4-oxadiazol-2-yl)-5-(trifluoromethyl)-3-azabicyclo[3.1.0]hexan-3-yl)quinoline-8-carbonitrile], the IC50 at HEK-Blue-hTLR8 cells is below 1000 nM; at HEK-Blue-hTLR7 cells, above 1000 nM.
As to `CN1CCC(c2nnc([C@]34CN(c5ccc([N+](=O)[O-])c6ncccc56)C[C@@]3(C(F)(F)F)C4)o2)CC1` [Compound 62, 2-(1-methylpiperidin-4-yl)-5-((1S,5R)-3-(8-nitroquinolin-5-yl)-5-(trifluoromethyl)-3-azabicyclo[3.1.0]hexan-1-yl)-1,3,4-oxadiazole], the IC50 at HEK-Blue-hTLR8 cells and at HEK-Blue-hTLR7 cells was below 100 nM throughout.
For `CN1CCN(c2nnc([C@]34CN(c5ccc(C#N)n6ncc(F)c56)C[C@@]3(C(F)(F)F)C4)o2)CC1` [Compound 63, 3-fluoro-4-((1S,5R)-1-(5-(4-methylpiperazin-1-yl)-1,3,4-oxadiazol-2-yl)-5-(trifluoromethyl)-3-azabicyclo[3.1.0]hexan-3-yl)pyrazolo[1,5-a]pyridine-7-carbonitrile], the IC50 at HEK-Blue-hTLR8 cells and on HEK-Blue-hTLR7 cells was below 100 nM each time.
`Cc1ccc(N2C[C@]3(c4nnc(C5CCN(C)CC5)o4)C[C@]3(C(F)(F)F)C2)c2cccnc12` [Compound 65, 2-(1-methylpiperidin-4-yl)-5-((1S,5R)-5-(trifluoromethyl)-3-(8-methylquinolin-5-yl)-3-azabicyclo[3.1.0]hexan-1-yl)-1,3,4-oxadiazole]: the IC50 on HEK-Blue-hTLR8 cells and on HEK-Blue-hTLR7 cells was below 100 nM in each case.
As to `CN1CCC(c2nnc([C@]34CN(c5ccc(Cl)c6ncccc56)C[C@@]3(C(F)(F)F)C4)o2)CC1` [Compound 67, 2-((1S,5R)-3-(8-chloroquinolin-5-yl)-5-(trifluoromethyl)-3-azabicyclo[3.1.0]hexan-1-yl)-5-(1-methylpiperidin-4-yl)-1,3,4-oxadiazole], the IC50 on HEK-Blue-hTLR8 cells and at HEK-Blue-hTLR7 cells was below 100 nM throughout.
In the case of `CN1CCC(c2nnc([C@]34CN(c5cnc(C#N)c6ncccc56)C[C@@]3(C(F)(F)F)C4)o2)CC1` [Compound 68, 5-((1S,5R)-1-(5-(1-methylpiperidin-4-yl)-1,3,4-oxadiazol-2-yl)-5-(trifluoromethyl)-3-azabicyclo[3.1.0]hexan-3-yl)-1,7-naphthyridine-8-carbonitrile], the IC50 at HEK-Blue-hTLR8 cells and on HEK-Blue-hTLR7 cells was below 100 nM throughout.
